Laboratory results reported in patent US7863476B1, “Multifunctional anionic surfactants” (Oil Chem Technologies, priority 2009, dated 2011).

Legend:
Format in all cases: physicochemical
[1] = Brine solubilities of surfactant concentrates; conditions: 5.0% by weight surfactant concentrate, 30° C.; for Brine solubility, BRINE 1: Brine 1: NaCl 3.0%, CaCl2-2H2O 1.0%, MgCl2-6H2O 1.0%; for Brine solubility, BRINE 2: Brine 2: NaCl 1.0%; for Brine solubility, BRINE 3: Brine 3: NaCl 5.0%; for Brine solubility, BRINE 4: Brine 4: NaCl 10%; for Brine solubility, BRINE 5: Brine 5: NaCl 20%
Experimental: (§1) In all cases the surfactant formulation consisted of 30% by weight surfactant, 25% by weight ethylene glycol monobutyl ether (co-surfactant/solvent), and 45% by weight water. Also in all cases except where noted the surfactant formulation was added to the injection brine at a concentration of 0.10 weight percent. These examples use surfactants containing only ethylene oxide in the alcohol ether carboxylate although products containing propylene oxide and ethylene oxide give good results in certain applications.
(§2) Table II is the brine compositions that were used for the IFT testing to show the effect of total dissolved solids and divalent ion concentration on the IFT obtained using various surfactants.
Table III compares the solubilities obtained with 5.0% by weight of various surfactant concentrates in the 5 brines at 30° C.

[2] = Interfacial tension (IFT) by spinning drop interfacial tensiometer; conditions: 0.10 wt % surfactant, 95° C., spinning 1 hour; for IFT, BRINE 1: Brine 1: NaCl 3.0%, CaCl2-2H2O 1.0%, MgCl2-6H2O 1.0%; for IFT, BRINE 2: Brine 2: NaCl 1.0%; for IFT, BRINE 3: Brine 3: NaCl 5.0%; for IFT, BRINE 4: Brine 4: NaCl 10%; for IFT, BRINE 5: Brine 5: NaCl 20%
Experimental: as §1, §2
All IFTs were obtained using a University of Texas Model 500 spinning drop interfacial tensiometer after spinning at 95° C. for 1 hour.

Static adsorption test = assay: Static adsorption test
Source text: Table VII compares the adsorption of the composition of this invention surfactant B with a 1:1 molar mixture of surfactant D and surfactant E to show the effectiveness of having both the sulfonate and ether carboxylate on one molecule. 0.2 wt % surfactant D and 0.2 wt % surfactant E alone were also included to correct for the amount of each of these surfactants adsorbed. All tests were done using 0.20 wt % total surfactant in Brine 2. The static adsorption was run by mixing 50.0 grams of surfactant solution with 10.0 grams of 200 mesh beach sand on a wrist action shaker for 16 hours and then determining the amount of surfactant remaining compared to the original amount added.

[3] = 0.20 wt % total surfactant in Brine 2, 16 hours

| Substance | Brine solubility, BRINE 1 [1] | Brine solubility, BRINE 2 [1] | Brine solubility, BRINE 3 [1] | Brine solubility, BRINE 4 [1] | Brine solubility, BRINE 5 [1] | IFT, BRINE 1 [2] [mN/m] | IFT, BRINE 2 [2] [mN/m] | IFT, BRINE 3 [2] [mN/m] | IFT, BRINE 4 [2] [mN/m] | IFT, BRINE 5 [2] [mN/m] | % adsorbed (Static adsorption test; [3]) [%] | amount adsorbed in mg surfactant/gram sand (Static adsorption test; [3]) [mg/g] | Amount remaining (Static adsorption test; of 0.100 g original wt, 0.20 wt % total surfactant in Brine 2, 50.0 g solution with 10.0 g sand, 16 hours) | Adsorbed (Static adsorption test; of 0.100 g original wt, 0.20 wt % total surfactant in Brine 2, 16 hours) |
| --- | --- | --- | --- | --- | --- | --- | --- | --- | --- | --- | --- | --- | --- | --- |
| Sodium salt of carboxylated oleyl alcohol with 2 moles of EO. [Surfactant C] | dis- | soluble | soluble | soluble | dis- | 0.769 | 0.070 | 0.090 | 0.122 | 0.256 | – | – | – | – |
| Sodium salt of carboxylated oleyl alcohol with 9 moles of EO. [Surfactant D] | soluble | soluble | soluble | soluble | soluble | 0.066 | 0.031 | 0.022 | 0.020 | 0.020 | 78 | 7.8 | 0.022 | 0.078 |
